Measured values from patent publication US20180200257A1, “METHODS FOR THE TREATMENT OF INFLAMMATORY DISORDERS” (Galapagos NV, priority 2015, published 2018).

Test system: Subjects With Active Crohn's Disease With Evidence of Mucosal Ulceration
Assay: Study 3 - CDAI component PRO2 score
Assay type: in vivo, human
Settings: 200 mg
Excerpt: Double-Blind, Randomized, Placebo-Controlled, Multi-Centre Study to Investigate the Efficacy and Safety of Compound 1 in Subjects With Active Crohn's Disease With Evidence of Mucosal Ulceration. This is a double-blind, randomized, placebo-controlled, multi-centre Phase 2 study to investigate the efficacy and safety of Compound 1 administered once daily for the treatment of active CD with evidence of mucosal ulceration. The pharmacokinetics (including a PK substudy) and pharmacodynamics of Compound 1 and metabolite in CD will also be characterised. A total of 180 eligible subjects will be randomized to receive Compound 1 or placebo in addition to their stable background treatment (eg, corticosteroids, aminosalicylates, or CD-related antibiotics). The study will consist of 2 parts, with total treatment duration of 20 weeks. Randomization in Part 1 will be stratified according the subject's previous anti-TNF exposure/response, CRP level at Screening, and oral corticosteroid use at visit Day −1. After the first 10 weeks of treatment in Part 1, patients will be re-randomized for Part 2 as shown in the diagram below and will be stratified according to the subject's clinical response, previous anti-TNF exposure/response, and oral corticosteroid use at visit Day -1. [table] Within the CDAI score measurement parameters, the PRO2 score, based on the stool frequency (SF) and abdominal pain (AP) components of the CDAI, was also measured. The PRO2 score is calculated as follows: PRO2=7 x (mean daily number of liquid or very soft stools)+7×(mean daily abdominal pain score). This score provides a measurement of the symptoms improvement of the patient.

## O=C(Nc1nc2cccc(-c3ccc(CN4CCS(=O)(=O)CC4)cc3)n2n1)C1CC1 [Compound 1, cyclopropanecarboxylic acid {5-[4-(1,1-dioxo-thiomorpholin-4-ylmethyl)-phenyl]-[1,2,4]triazolo[1,5-a]pyridin-2-yl}-amide]
Baseline, LOCF
  PRO2 mean, baseline: 52.4
Week 10, LOCF
  PRO2 mean CFB, W 10: −21.9
  PRO2 remission (PRO2 ≤ 28): 55%
  PRO2 response (mean daily number of liquid or very soft stools ≤ 3, mean daily abdominal pain ≤ 1): 38%
Week 10, NRI
  PRO2 remission (PRO2 ≤ 28): 50%
  PRO2 response (mean daily number of liquid or very soft stools ≤ 3, mean daily abdominal pain ≤ 1): 34%
